“Also recorded” adds a separate entry of the source.
How the values were obtained:
[1] = system: human embryonic stem cells; test: Feeder-free culture: maintenance of undifferentiated state (morphology, ALP staining, hESC markers); assay type: cell-based; details: 3 μM antagonist in NPY medium
Procedure: Each experiment was carried out at least three times. […] Error bars represent standard error of the mean (n=3).

phospho-AKT in H9 cells = test: Western blot of NPY signalling: AKT phosphorylation; assay type: cell-based, human; details: 1 μM NPY
Procedure: (§1) The membranes were probed with the indicated antibodies, and β-actin was used as a loading control. For protein quantification, the blots were scanned, and the bands were quantified using densitometry (a-c, lower panels). The data are presented as the mean±SE (n=3). **p<0.01, *p<0.05, by t-test.
(§2) The supernatant was re-centrifuged for 10 min, and protein concentrations determined using the BCA protein assay kit (Pierce, Rockford, Ill.). Proteins (20 μg) were fractionated by SDS polyacrylamide gel electrophoresis (PAGE), and electrotransferred to polyvinylidene fluoride (PVDF) membranes (Millipore Corp, Bedford, Mass.). Membranes were blocked in PBS containing 0.1% Tween-20 and 5% non-fat milk for 2 hrs at room temperature, and probed with primary antibodies diluted in PBS/0.2% BSA for 1 hr. After washing, membranes were incubation with the corresponding secondary anti-rabbit HRP-conjugated or anti-mouse HRP-conjugated antibodies (Amersham, Arlington Heights, Ill.), and the bands were visualized using the ECL Advance kit (Amersham). Bands were analyzed for density with Image Gauge software (Fuji Photo Film GMBH, D) and normalized to loading control (β-actin) bands. All experiments were performed in triplicate. Error bars represent standard error of the mean (n=3).

[2] = system: phospho-ERK1/2 in H9 cells; test: Western blot of NPY signalling: ERK1/2 phosphorylation; assay type: cell-based, human; details: 30 min pretreatment with receptor antagonist (3 μM in FIG. 11 legend), 1 μM NPY
Procedure: as §1, §2

phospho-CREB in H9 cells = test: Western blot / immunohistochemistry of NPY signalling: CREB phosphorylation; assay type: cell-based, human; details: 1 μM NPY; for Effect on NPY-mediated CREB phosphorylation: pretreatment with kinase inhibitor, inhibition appeared incomplete
Procedure: as §1
For immunostaining, cells were plated on matrigel-coated 4-well Lab-Tek chamber slides (Nunc, Naperville, Ill.) and cultured for 5 days under described conditions. […] Cells were incubated for 2 hrs at 4° C. with respective primary antibodies diluted in PBS/0.2% BSA. After washing, cells were incubated with FITC- or Alexa 594-conjugated secondary antibodies (Invitrogen) in PBS/0.2% BSA for 1 hr at room temperature. Cells were counterstained using 10 μg/ml DAPI (4′,6-diamidino-2-phenylindole). Chamber slides were analyzed by an Olympus microscope or Axiovert 200M microscope (Carl Zeiss, Gottingen, Germany).
as §2

H9 hESCs = test: BrdU incorporation (hESC proliferation); assay type: cell-based, human; details: inhibitor 10 μM (FIG. 4b), NPY medium
Procedure: The proliferation rate of H9 hESCs cultured using the indicated media was measured using BrdU incorporation. […] Upper panels: representative images of BrdU+ cells. Bar=100 μm. Lower panels: Quantification of BrdU+ cells. The relative number of BrdU+ cells per field of vision was quantified and is presented as the percentage of the total number of cells counted.
Human embryonic stem cells were grown on matrigel-coated 4-well LabTec chamber slides for 4 days for the 5-bromo-2-deoxyuridine (BrdU; BD Pharmingen, San Diego) incorporation assays.
For BrdU incorporation, the cells were incubated in the presence of 30 μM BrdU for 1 hr at 37° C. […] After washing, the cells were incubated with the anti-BrdU antibody in PBS supplemented with 3% BSA for 1 hr, and then incubated with a FITC-conjugated secondary antibody (Invitrogen) for 30 min. The nuclei were stained with DAPI and examined using an Olympus microscope. The mean number of BrdU+ cells per field of vision was determined. At least four fields of vision per coverslip were counted.

H9 cells = test: Growth efficiency test (cell number); assay type: cell-based, human; details: TGFβ addition (1 ng/ml) to N2/B27 medium with NPY, compared with MEF-CM and UM supplemented with NPY
Procedure: Comparison of the growth efficiency of H9 cells cultured using the indicated media for 6 days by measuring the cell number as described in Materials and Methods. The data are presented as the mean±SE (n=3). **p<0.01, *p<0.02, by t-test.
hESC clumps (100×100 μm; approximately 70-90 cells per clump) was seeded evenly on a 35 mm culture dish coated with Matrigel in a final volume of 2 ml. The cells were plated to a cell density of approximately 5×10^5 cells per 35 mm culture dish. The plated cells were allowed to grow for 6 days under described culture conditions. To determine the number of cells, the cells were washed with PBS and trypsinized. The cell suspension was mixed with a 0.4% (wt/vol) trypan blue solution, and the number of live cells was determined using a hemocytometer. Each trial was performed in triplicate.

NC(N)=NCCC[C@@H](NC(=O)C(c1ccccc1)c1ccccc1)C(=O)NCc1ccc(O)cc1 [BIBP3226]
Maintenance of undifferentiated state in NPY medium in presence of antagonist (morphology; ALP, OCT4, SOX2, hTERT, TDGF) [1]: fail to maintain in an undifferentiated state; also recorded: loss of undifferentiated human embryonic stem cells
Effect on NPY-mediated AKT activation (phospho-AKT in H9 cells; 30 min pretreatment with receptor antagonist (3 μM in FIG. 11 legend)): significantly reduced
Effect on NPY-mediated ERK activation [2]: significantly reduced
Effect on NPY-mediated up-regulation of p-CREB (phospho-CREB in H9 cells; pretreatment with receptor antagonist): partially blocked

O=S(=O)(NCCNC/C=C/c1ccc(Br)cc1)c1cccc2cnccc12 [H89]
Effect on NPY-stimulated BrdU incorporation (H9 hESCs): potent in suppressing NPY-stimulated BrdU incorporation
Effect on NPY-mediated CREB phosphorylation (phospho-CREB in H9 cells): blocked

N#CC(=C(/N)Sc1ccccc1N)/C(C#N)=C(\N)Sc1ccccc1N [U0126]
Effect on NPY-stimulated BrdU incorporation (H9 hESCs): potent in suppressing NPY-stimulated BrdU incorporation
Effect on NPY-mediated AKT activation (phospho-AKT in H9 cells; pretreatment with kinase inhibitor (10 μM in FIG. 12 legend)): inhibited
Effect on NPY-mediated CREB phosphorylation (phospho-CREB in H9 cells): blocked

TGFβ
Effect on growth efficiency (cell number) (H9 cells): did not affect the growth efficiency

— patent US8628963B2, “Medium composition comprising neuropeptide Y for the generation, maintenance, prolonged undifferentiated growth of pluripotent stem cells and method of culturing pluripotent stem cell using the same” (Korea Research Institute of Bioscience and Biotechnology, priority 2009, dated 2014)
